Patent US20090062294A1, “HETEROARYL-SUBSTITUTED UREA MODULATORS OF FATTY ACID AMIDE HYDROLASE” (priority 2007, published 2009)
Where a name gives a salt, the structure may show the parent alone.

What was measured:
FAAH = target: T1, FAAH (Homo sapiens, UniProt O00519); assay: Assay Method 1: FAAH assay, 3H-anandamide hydrolysis in homogenate of T84 cells or SK-N-MC cells transfected with human FAAH; assay type: biochemical; details: average of results, > = solubility limit or highest concentration tested
T1 sequence (O00519 1-579): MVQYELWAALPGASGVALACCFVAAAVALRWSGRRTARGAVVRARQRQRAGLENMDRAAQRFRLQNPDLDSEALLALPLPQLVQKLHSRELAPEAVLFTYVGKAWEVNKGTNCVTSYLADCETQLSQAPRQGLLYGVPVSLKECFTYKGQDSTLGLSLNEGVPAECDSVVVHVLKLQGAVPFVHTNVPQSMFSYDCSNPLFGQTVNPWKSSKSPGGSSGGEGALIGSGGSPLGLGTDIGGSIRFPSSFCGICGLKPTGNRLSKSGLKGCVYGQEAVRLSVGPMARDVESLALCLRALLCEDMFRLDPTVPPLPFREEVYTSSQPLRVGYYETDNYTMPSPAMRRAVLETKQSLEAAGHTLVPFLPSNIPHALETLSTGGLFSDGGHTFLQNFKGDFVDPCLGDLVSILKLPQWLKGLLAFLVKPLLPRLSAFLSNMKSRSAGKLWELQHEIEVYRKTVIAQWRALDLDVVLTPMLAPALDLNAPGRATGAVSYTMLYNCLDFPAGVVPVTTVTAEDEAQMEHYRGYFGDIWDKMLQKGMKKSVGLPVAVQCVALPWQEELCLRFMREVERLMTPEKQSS
Experimental: A. Transfection of Cells with Human FAAH
(§1) A 10-cm tissue culture dish with a confluent monolayer of SK—N-MC cells was split 2 days (d) prior to transfection. Using sterile technique, the media was removed and the cells were detached from the dish by the addition of trypsin. One fifth of the cells were then placed onto a new 10-cm dish. Cells were grown in a 37° C. incubator with 5% CO2 in Minimal Essential Media Eagle with 10% Fetal Bovine Serum. After 2 d, cells were approximately 80% confluent. These cells were removed from the dish with trypsin and pelleted in a clinical centrifuge. The pellet was re-suspended in 400 μL complete media and transferred to an electroporation cuvette with a 0.4 cm gap between the electrodes. Supercoiled human FAAH cDNA (1 μg) was added to the cells and mixed. The voltage for the electroporation was set at 0.25 kV, and the capacitance was set at 960 μF. After electroporation, the cells were diluted into complete media (10 mL) and plated onto four 10-cm dishes. Because of the variability in the efficiency of electroporation, four different concentrations of cells were plated. The ratios used were 1:20, 1:10, and 1:5, with the remainder of the cells being added to the fourth dish. The cells were allowed to recover for 24 h before adding the selection media (complete media with 600 μg/mL G418). After 10 d, dishes were analyzed for surviving colonies of cells. Dishes with well-isolated colonies were used. Cells from individual colonies were isolated and tested.
(§2) T84 frozen cell pellets or transfected SK—N-MC cells (contents of 1×15 cm culture dishes) were homogenized in 50 mL of FAAH assay buffer (125 mM Tris, 1 mM EDTA, 0.2% Glycerol, 0.02% Triton X-100, 0.4 mM Hepes, pH 9). The assay mixture consisted of 50 μL of the cell homogenate, 10 μL of the test compound, and 40 μL of anandamide [1-^3H-ethanolamine] (^3H-AEA, Perkin-Elmer, 10.3 Ci/mmol), which was added last, for a final tracer concentration of 80 nM. The reaction mixture was incubated at rt for 1 h. During the incubation, 96-well Multiscreen filter plates (catalog number MAFCNOB50; Millipore, Bedford, Mass., USA) were loaded with 25 μL of activated charcoal (Multiscreen column loader, catalog number MACL09625, Millipore) and washed once with 100 μL of MeOH. Also during the incubation, 96-well DYNEX MicroLite plates (catalog number NL510410) were loaded with 100 μL of MicroScint40 (catalog number 6013641, Packard Bioscience, Meriden, Conn., USA). After the 1 h incubation, 60 μL of the reaction mixture were transferred to the charcoal plates, which were then assembled on top of the DYNEX plates using Centrifuge Alignment Frames (catalog number MACF09604, Millipore). The unbound labeled ethanolamine was centrifuged through to the bottom plate (5 min at 2000 rpm), which was preloaded with the scintillant, as described above. The plates were sealed and left at rt for 1 h before counting on a Hewlett Packard TopCount.
(§3) Compounds were tested in free base, hydrochloride salt, and/or trifluoroacetic acid salt forms.

rat FAAH = target: T2, rat FAAH (Rattus norvegicus, UniProt P97612); assay: Assay Method 2: FAAH assay, 3H-anandamide hydrolysis in homogenate of SK-N-MC cells transfected with rat FAAH; assay type: biochemical; details: average of results, > = solubility limit or highest concentration tested
T2 sequence (P97612 1-579): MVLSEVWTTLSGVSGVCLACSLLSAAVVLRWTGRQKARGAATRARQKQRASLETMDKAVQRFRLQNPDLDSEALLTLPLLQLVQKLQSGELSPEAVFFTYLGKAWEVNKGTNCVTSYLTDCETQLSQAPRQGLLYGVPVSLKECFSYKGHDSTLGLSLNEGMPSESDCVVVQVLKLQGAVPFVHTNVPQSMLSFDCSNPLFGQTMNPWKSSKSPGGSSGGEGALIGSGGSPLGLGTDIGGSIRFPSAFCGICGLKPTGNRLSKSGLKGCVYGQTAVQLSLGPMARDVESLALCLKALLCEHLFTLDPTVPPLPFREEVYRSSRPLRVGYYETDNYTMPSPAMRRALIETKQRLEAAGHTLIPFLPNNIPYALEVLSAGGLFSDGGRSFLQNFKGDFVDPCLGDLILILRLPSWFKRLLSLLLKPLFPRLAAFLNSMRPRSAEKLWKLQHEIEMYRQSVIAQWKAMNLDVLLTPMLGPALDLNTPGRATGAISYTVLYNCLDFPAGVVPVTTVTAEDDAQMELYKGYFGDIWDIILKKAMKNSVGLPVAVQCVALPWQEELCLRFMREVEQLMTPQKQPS
Experimental: A. Transfection of Cells with Rat FAAH
as §1, with “rat” for “human”
as §2, §3

IC50 (FAAH) [nM] | IC50 (rat FAAH) [nM] | SMILES
10 | 150 | O=C(Nc1ccon1)N1CCN(Cc2cccc(Oc3ccc(S(=O)(=O)C(F)(F)F)cc3)c2)CC1 [Example 158, N-Isoxazol-3-yl-4-(3-{4-[(trifluoromethyl)sulfonyl]phenoxy}benzyl)-piperazine-1-carboxamide]
3000 | 3700 | O=C(Nc1nn[nH]n1)N1CCN(Cc2cccc(Oc3ccccc3Cl)c2)CC1 [Example 190, 4-[3-(2-Chlorophenoxy)benzyl]-N-2H-tetrazol-5-ylpiperazine-1-carboxamide]
50 | 300 | O=C(Nc1ccon1)N1CCN(Cc2cccc(Oc3cccc(OC(F)(F)F)c3)c2)CC1 [Example 159, N-Isoxazol-3-yl-4-{3-[3-(trifluoromethoxy)phenoxy]benzyl}piperazine-1-carboxamide]
3000 | 8000 | O=C(Nc1ccon1)N1CCN(Cc2ccc(Cl)c(Cl)c2)CC1 [Example 160, 4-(3,4-Dichlorobenzyl)-N-isoxazol-3-ylpiperazine-1-carboxamide]
2 | 9 | O=C(Nc1nccnc1Cl)N1CCN(Cc2cccc(Oc3ccc(Cl)cc3)c2)CC1 [Example 243, 4-[3-(4-Chlorophenoxy)benzyl]-N-(3-chloropyrazin-2-yl)piperazine-1-carboxamide]
700 | 600 | O=C(Nc1cnccn1)N1CCN(Cc2ccc(Br)c(F)c2)CC1 [Example 222, 4-(4-Bromo-3-fluorobenzyl)-N-pyrazin-2-ylpiperazine-1-carboxamide]
8 | 370 | O=C(Nc1cnccn1)N1CCN(Cc2cccc(Oc3ccc(F)c(C(F)(F)F)c3)c2)CC1 [Example 241, 4-{3-[4-Fluoro-3-(trifluoromethyl)phenoxy]benzyl}-N-pyrazin-2-ylpiperazine-1-carboxamide]
38 | 500 | O=C(Nc1cccnn1)N1CCN(Cc2ccc3ccccc3c2)CC1 [Example 200, 4-(Naphthalen-2-ylmethyl)-N-pyridazin-3-ylpiperazine-1-carboxamide]
130 | 440 | O=C(Nc1noc2ccccc12)N1CCN(Cc2cnc3ccccc3c2)CC1 [Example 117, N-1,2-Benzisoxazol-3-yl-4-(quinolin-3-ylmethyl)piperazine-1-carboxamide]
20 | 4 | O=C(Nc1noc2ccccc12)N1CCN(Cc2cccc(Oc3ccc(SC(F)(F)F)cc3)c2)CC1 [Example 130, N-1,2-Benzisoxazol-3-yl-4-(3-{4-[(trifluoromethyl)sulfanyl]phenoxy}-benzyl)piperazine-1-carboxamide]

More lines, now with the values behind:

SMILES | IC50 (FAAH) [nM] | IC50 (rat FAAH) [nM]
O=C(Nc1nnn[nH]1)N1CCN(Cc2ccc3c(c2)OC(F)(F)O3)CC1 [Example 3, 4-(2,2-Difluoro-benzo[1,3]dioxol-5-ylmethyl)-piperazine-1-carboxylic acid (1H-tetrazol-5-yl)-amide trifluoroacetic acid salt] | 1200 | 9000
O=C(Nc1noc2ccccc12)N1CCN(Cc2ccc3nc[nH]c3c2)CC1 [Example 100, 4-(1H-Benzimidazol-6-ylmethyl)-N-1,2-benzisoxazol-3-ylpiperazine-1-carboxamide] | > 10000 | > 10000
O=C(Nc1noc2ccccc12)N1CCN(Cc2ccc3c(c2)OC(F)(F)O3)CC1 [Example 1, 4-(2,2-Difluoro-benzo[1,3]dioxol-5-ylmethyl)-piperazine-1-carboxylic acid benzo[d]isoxazol-3-ylamide trifluoroacetic acid salt] | 103 | 337
O=C(Nc1ccc(Cl)nn1)N1CCN(Cc2ccc(F)c(Oc3ccccc3)c2)CC1 [Example 45, 4-(4-Fluoro-3-phenoxy-benzyl)-piperazine-1-carboxylic acid (6-chloro-pyridazin-3-yl)-amide trifluoroacetic acid salt] | 1500 | 410
O=C(Nc1ccc(Cl)nn1)N1CCN(Cc2cccc(Oc3ccc(Cl)c(Cl)c3)c2)CC1 [Example 43, 4-[3-(3,4-Dichloro-phenoxy)-benzyl]-piperazine-1-carboxylic acid (6-chloro-pyridazin-3-yl)-amide trifluoroacetic acid salt] | 983 | 6
O=C(Nc1noc2ccccc12)N1CCN(Cc2cccc(C#Cc3ccccc3C(F)(F)F)c2)CC1 [Example 64, N-1,2-Benzisoxazol-3-yl-4-(3-{[2-(trifluoromethyl)-phenyl]-ethynyl}benzyl)-piperazine-1-carboxamide] | 105 | 80
O=C(Nc1cccc2nsnc12)N1CCN(Cc2cccc(Oc3cc(Cl)cc(Cl)c3)c2)CC1 [Example 39, 4-[3-(3,5-Dichloro-phenoxy)-benzyl]-piperazine-1-carboxylic acid benzo[1,2,5]thiadiazol-4-ylamide trifluoroacetic acid salt] | 310 | 573
O=C(Nc1ccn[nH]1)N1CCC(Cc2ccc3ccccc3c2)CC1 [Example 14, 4-Naphthalen-2-ylmethyl-piperidine-1-carboxylic acid (2H-pyrazol-3-yl)-amide] | 218 | 63
O=C(Nc1ccc(Cl)nn1)N1CCN(Cc2cccc(Oc3ccc(Cl)cc3)c2)CC1 [Example 42, 4-[3-(4-Chloro-phenoxy)-benzyl]-piperazine-1-carboxylic acid (6-chloro-pyridazin-3-yl)-amide trifluoroacetic acid salt] | 311 | 18
